Values quoted from earlier work as cited in US6823530B2, “Antimicrobial treatment for swimwear” (Kimberly-Clark Worldwide, Inc., priority 2000, dated 2004).

Assays:
[1] = test system: gram negative and positive bacteria

CC1(C)C(=O)N(CO)C(=O)N1CO [DMDM Hydantoin, DMDM (dimethyl dimethyl) Hydantoin]
thermal stability (held above room temperature (50° Celsius) for a long period of time): does not break down
pH stability (wide pH range): stable over a wide pH range
effectiveness against gram negative and positive bacteria [1]: highly effective
